According to patent publication US20140288025A1, “FATTY ACID ANTIVIRAL CONJUGATES AND THEIR USES” (Catabasis Pharmaceuticals, Inc., priority 2013, published 2014):
Where two headings read alike, the source gives them in different places.

Columns and labels:
NF-κB = NF-κB luciferase reporter assay in RAW 264.7 macrophages; assay type: cell-based; details: for IC50: Mus musculus
Procedure: RAW 264.7 cells stably expressing a 3×NFkB response element-drive luciferase reporter were seeded into 96 well plates in sera-free medium (Optimem) 18 hours prior to compound application. Compounds of the invention were prepared by first making 100 mM stock solutions in EtOH. […] Cells were then stimulated with 200 ng/ml LPS or vehicle control for 3 hours in the presence of the compounds of the invention. A set of six vehicles was left unstimulated with LPS in order to measure the assay floor. AlamarBlue viability dye (Invitrogen) was added to cells simultaneously with the delivery of LPS (final AlamarBlue concentration of 10%). After the 3 h incubation period with LPS, cell viability was measured by reading fluorescence (excitation 550 nm, emission 595 nm) with a Perkin Elmer Victor V plate reader. Then cell media was aspirated from each well. Luciferase signal was then developed by addition of the Britelite Plus reagent (Perkin Elmer). Luciferase activity was measured with the Perkin Elmer Victor V plate reader. NE-κB activity was expressed as a percent of the vehicle control wells (stimulated with LPS). Compounds were tested at 6 dose point titrations in triplicate to determine IC50 values.

HIV-1IIIB strain = assay: HIV-1 cytoprotection assay (CEM-SS cells, MTS dye reduction); assay type: cell-based
Procedure: Cytoprotection assays are commonly used for evaluating the antiviral efficacy of test compounds against a variety of viruses in different cell lines. […] Briefly, virus and cells are mixed in the presence of test compound and incubated for 6 days. […] Each assay plate contains cell control wells (cells only), virus control wells (cells plus virus), compound toxicity control wells (cells plus compound only), compound colorimetric control wells (compound only), as well as experimental wells (compound plus cells plus virus). Cytoprotection and compound cytotoxicity are assessed by MTS (CellTiter®96 Reagent, Promega, Madison Wis.) dye reduction. […] Each assay includes the HIV reverse transcriptase inhibitor AZT as a positive control.
CEM-SS cells were obtained from the NIH AIDS Research and Reference Reagent Program and are routinely passaged in T-75 flasks using standard tissue culture techniques based on the specifications provided by the supplier. On the day preceding the assay, the cells are split 1:2 to assure they are in an exponential growth phase at the time of infection. Total cell number and percent viability determinations are performed using a hemacytometer and trypan blue exclusion. […] The cells are re-suspended at 5×10^4 cells/mL in tissue culture medium and added to the drug-containing 96-well microtiter plates in a volume of 50 μl.
The viruses used for this assay are CXCR4-tropic laboratory virus strains. The most commonly used strains are HIV-1RF and HIV-1IIIB (each obtained from the NIH AIDS Research and Reference Reagent Program). For each assay, a pre-titered aliquot of virus is removed from the freezer (−80° C.) and allowed to thaw slowly to room temperature in a biological safety cabinet. The virus is re-suspended and diluted into tissue culture medium such that the amount of virus added to each well in a volume of 50 μl is the amount determined to give between 85 to 95% cell killing at 6 days post-infection.
Each plate contains cell control wells (cells only), virus control wells (cells plus virus), drug cytotoxicity wells (cells plus drug only), drug colorimetric control wells (drug only), background control wells (media only), as well as experimental wells (drug plus cells plus virus). Samples are evaluated for antiviral efficacy with triplicate measurements using 6 concentrations at half-log dilutions (12 concentrations can also be performed) in order to determine IC50 values and with duplicate measurements to determine cellular cytotoxicity, if detectable.
100% EtOH is added to the compounds of the invention such that the EtOH stock concentration is 50 mM. […] (VWR Ultrasonics Cleaner, Model #B8500A-DTH with “Sonics Power” set to HI); e) The 1:2 serial dilutions of the 1 mM 10× stock solution with FBS/2% EtOH are prepared such that the concentrations of the 10× stock solutions are 1 mM, 0.5 mM, 0.25 mM, etc., in FBS with 2% EtOH. Medium is aspirated off cells and replaced with serum free medium.

[1] = RAW264.7, 3 h, read-out: NF-kB inhibitory activity IC50 μM
[2] = RAW264.7, RAW 264.7 reporter cells, 200 ng/ml LPS, 3 hours, read-out: NF-kB inhibitory activity IC50
[3] = RAW 264.7 reporter cells, 200 ng/ml LPS, 3 hours
[4] = Human immunodeficiency virus 1, IIIB, CEM-SS, 144 h, read-out: IC50 HIV-1IIIB strain (nM)
[5] = CEM-SS cells, HIV-1 IIIB strain, 6 days, MTS

| SMILES | IC50 (NF-κB; [2]) | other results |
| --- | --- | --- |
| CC(C)CN(C[C@@H](O)[C@H](Cc1ccccc1)NC(=O)O[C@H]1CO[C@H]2OCC[C@H]21)S(=O)(=O)c1ccc(N)cc1 [Darunavir, darunavir, reference compound] |  | IC50 (NF-κB; [1]): > 200 µM |
| C=C1[C@H](CO)[C@@H](O)C[C@@H]1n1cnc2c(=O)[nH]c(N)nc21 [Entecavir, entecavir, reference compound] | > 200 µM |  |
| CC/C=C\C/C=C\C/C=C\C/C=C\C/C=C\C/C=C\CCC(=O)NCCNC(=O)OC[C@H]1O[C@H](n2cc(C)c(=O)[nH]c2=O)C[C@@H]1N=[N+]=[N-] [Example V-5, ((2S,3S,5S)-3-azido-5-(5-methyl-2,4-dioxo-3,4-dihydropyrimidin-1(2H)-yl)tetrahydrofuran-2-yl)methyl (2-((4Z,7Z,10Z,13Z,16Z,19Z)-docosa-4,7,10,13,16,19-hexaenamido)ethyl)carbamate] |  | NF-kB inhibitory activity IC50 μM (NF-κB; [3]): + +; IC50 (HIV-1IIIB strain; Human immunodeficiency virus 1, 144 h, CEM-SS cells, HIV-1 IIIB strain, 6 days, MTS, read-out: IC50 HIV-1IIIB strain): > 100 nM |
| CC/C=C\C/C=C\C/C=C\C/C=C\C/C=C\C/C=C\CCC(=O)NCCOCCNC(=O)OC[C@H]1O[C@H](n2cc(C)c(=O)[nH]c2=O)C[C@@H]1N=[N+]=[N-] [Example V-8, ((2S,3S,5S)-3-azido-5-(5-methyl-2,4-dioxo-3,4-dihydropyrimidin-1(2H)-yl)tetrahydrofuran-2-yl)methyl (2-(2-((4Z,7Z,10Z,13Z,16Z,19Z)-docosa-4,7,10,13,16,19-hexaenamido)ethoxy)ethyl)carbamate] | 50 to 200 µM |  |
| CC/C=C\C/C=C\C/C=C\C/C=C\C/C=C\C/C=C\CCC(=O)N[C@H](C(=O)OC[C@H]1O[C@H](n2cc(C)c(=O)[nH]c2=O)C[C@@H]1N=[N+]=[N-])C(C)C [Example V-9, (S)-((2S,3S,5S)-3-azido-5-(5-methyl-2,4-dioxo-3,4-dihydropyrimidin-1(2H)-yl)tetrahydrofuran-2-yl)methyl 2-((4Z,7Z,10Z,13Z,16Z,19Z)-docosa-4,7,10,13,16,19-hexaenamido)-3-methylbutanoate] | 50 to 200 µM |  |
| CC/C=C\C/C=C\C/C=C\C/C=C\C/C=C\C/C=C\CCC(=O)Nc1ncc2ncn(CCC(COC(C)=O)COC(C)=O)c2n1 [Example V-10, 2-(2-(2-((4Z,7Z,10Z,13Z,16Z,19Z)-docosa-4,7,10,13,16,19-hexaenamido)-9H-purin-9-yl)ethyl)propane-1,3-diyl diacetate] | 50 to 200 µM |  |
| CC/C=C\C/C=C\C/C=C\C/C=C\C/C=C\C/C=C\CCC(=O)Nc1ncc2ncn(CCC(CO)CO)c2n1 [Example V-11, (4Z,7Z,10Z,13Z,16Z,19Z)—N-(9-(4-hydroxy-3-(hydroxymethyl)butyl)-9H-purin-2-yl)docosa-4,7,10,13,16,19-hexaenamide] | 50 to 200 µM |  |
| CC/C=C\C/C=C\C/C=C\C/C=C\C/C=C\CCCC(=O)Nc1ncc2ncn(CCC(COC(C)=O)COC(C)=O)c2n1 [Example V-12, 2-(2-(2-((5Z,8Z,11Z,14Z,17Z)-icosa-5,8,11,14,17-pentaenamido)-9H-purin-9-yl)ethyl)propane-1,3-diyl diacetate] | 50 to 200 µM |  |
| CC/C=C\C/C=C\C/C=C\C/C=C\C/C=C\C/C=C\CCC(=O)NCCN(C)CCNC(=O)OC[C@H]1O[C@@H](n2ccc(N)nc2=O)[C@](C)(F)[C@@H]1O [Example V-30, ((2R,3R,4R,5R)-5-(4-amino-2-oxopyrimidin-1(2H)-yl)-4-fluoro-3-hydroxy-4-methyltetrahydrofuran-2-yl)methyl (2-((2-((4Z,7Z,10Z,13Z,16Z,19Z)-docosa-4,7,10,13,16,19-hexaenamido)ethyl)(methyl)amino)ethyl)carbamate] | < 50 µM |  |
| CC(=O)OCC(CCn1cnc2cnc(N)nc21)COC(C)=O [Famciclovir, reference compound] | > 200 µM |  |
| CC/C=C\C/C=C\C/C=C\C/C=C\C/C=C\C/C=C\CCC(=O)NCCNP(=O)(OC[C@H]1O[C@H](n2cc(C)c(=O)[nH]c2=O)C[C@@H]1N=[N+]=[N-])Oc1ccccc1 (stereo partly drawn) [II-25, ((2S,3S,5S)-3-azido-5-(5-methyl-2,4-dioxo-3,4-dihydropyrimidin-1(2H)-yl)tetrahydrofuran-2-yl)methyl phenyl (2-((4Z,7Z,10Z,13Z,16Z,19Z)-docosa-4,7,10,13,16,19-hexaenamido)ethyl)phosphoramidate] |  | NF-kB inhibitory activity IC50 μM (NF-κB; [3]): + +; IC50 (HIV-1IIIB strain; [4]): < 100 nM |
| CC/C=C\C/C=C\C/C=C\C/C=C\C/C=C\CCCC(=O)NCCNP(=O)(OC)OC[C@H]1O[C@H](n2cc(C)c(=O)[nH]c2=O)C[C@@H]1N=[N+]=[N-] (stereo partly drawn) [II-30, ((2S,3S,5S)-3-azido-5-(5-methyl-2,4-dioxo-3,4-dihydropyrimidin-1(2H)-yl)tetrahydrofuran-2-yl)methyl methyl (2-((5Z,8Z,11Z,14Z,17Z)-icosa-5,8,11,14,17-pentaenamido)ethyl)phosphoramidate] |  | NF-kB inhibitory activity IC50 μM (NF-κB; [3]): + +; IC50 (HIV-1IIIB strain; [4]): > 100 nM |
| CC/C=C\C/C=C\C/C=C\C/C=C\C/C=C\CCCC(=O)NCCNP(=O)(OC)OC[C@@H]1O[C@H](n2ccc(N)nc2=O)CS1 (stereo partly drawn) [II-70, ((2R,5S)-5-(4-amino-2-oxopyrimidin-1(2H)-yl)-1,3-oxathiolan-2-yl)methyl methyl (2-((5Z,8Z,11Z,14Z,17Z)-icosa-5,8,11,14,17-pentaenamido)ethyl)phosphoramidate] |  | IC50 (NF-κB; [1]): 50 to 200 µM |
| Nc1ccn([C@@H]2CS[C@H](CO)O2)c(=O)n1 [Lamivudine, lamivudine, reference compound] | > 200 µM |  |
| CC/C=C\C/C=C\C/C=C\C/C=C\C/C=C\C/C=C\CCC(=O)Nc1ccc(S(=O)(=O)N(CC(C)C)C[C@@H](O)[C@H](Cc2ccccc2)NC(=O)O[C@H]2CO[C@H]3OCC[C@H]32)cc1 [VII-1, (3R,3aS,6aR)-hexahydrofuro[2,3-b]furan-3-yl ((2S,3R)-4-(4-((4Z,7Z,10Z,13Z,16Z,19Z)-docosa-4,7,10,13,16,19-hexaenamido)-N-isobutylphenylsulfonamido)-3-hydroxy-1-phenylbutan-2-yl)carbamate] |  | IC50 (NF-κB; [1]): 50 to 200 µM; IC50 HIV-1IIIB strain (nM) (HIV-1IIIB strain; [5]): + ++ |
| CC/C=C\C/C=C\C/C=C\C/C=C\C/C=C\CCCC(=O)Nc1ccc(S(=O)(=O)N(CC(C)C)C[C@@H](O)[C@H](Cc2ccccc2)NC(=O)O[C@H]2CO[C@H]3OCC[C@H]32)cc1 [VII-2, (3R,3aS,6aR)-hexahydrofuro[2,3-b]furan-3-yl((2S,3R)-3-hydroxy-4-(4-((5Z,8Z,11Z,14Z,17Z)-icosa-5,8,11,14,17-pentaenamido)-N-isobutylphenylsulfonamido)-1-phenylbutan-2-yl)carbamate] | < 50 µM | IC50 HIV-1IIIB strain (nM) (HIV-1IIIB strain; [5]): + ++ |
| Cc1cn([C@H]2C[C@H](N=[N+]=[N-])[C@@H](CO)O2)c(=O)[nH]c1=O [Zidovudine, reference compound] | > 200 µM |  |
